Where two headings read alike, the source gives them in different places.
Assays:
NS3/NS4 complexes = NS3/NS4 complexes (Hepatitis C virus genotype 1a, UniProt P27958); test: NS3/NS4 inhibition activity (IC50); assay type: biochemical
How it was run: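 NS3/NS4 complexes were formed and compound inhibitory concentrations determined at ambient temperature (23 °C). The buffer contained 50 mM Tris-HCl pH 7.5, 15% glycerol, 0.6 mM LDAO, 25 μM NS4A peptide and 10 mM DTT.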

hepatitis C replicon = hepatitis C replicon EC50; assay type: cell-based; conditions: Hepatitis C virus
From the text: NS3-NS4 inhibition activity can be determined using known assay methods.

[1] = Table 3, hepatitis C replicon, read-out: EC50

Chain of NS3/NS4 complexes (P27958 1027-1657): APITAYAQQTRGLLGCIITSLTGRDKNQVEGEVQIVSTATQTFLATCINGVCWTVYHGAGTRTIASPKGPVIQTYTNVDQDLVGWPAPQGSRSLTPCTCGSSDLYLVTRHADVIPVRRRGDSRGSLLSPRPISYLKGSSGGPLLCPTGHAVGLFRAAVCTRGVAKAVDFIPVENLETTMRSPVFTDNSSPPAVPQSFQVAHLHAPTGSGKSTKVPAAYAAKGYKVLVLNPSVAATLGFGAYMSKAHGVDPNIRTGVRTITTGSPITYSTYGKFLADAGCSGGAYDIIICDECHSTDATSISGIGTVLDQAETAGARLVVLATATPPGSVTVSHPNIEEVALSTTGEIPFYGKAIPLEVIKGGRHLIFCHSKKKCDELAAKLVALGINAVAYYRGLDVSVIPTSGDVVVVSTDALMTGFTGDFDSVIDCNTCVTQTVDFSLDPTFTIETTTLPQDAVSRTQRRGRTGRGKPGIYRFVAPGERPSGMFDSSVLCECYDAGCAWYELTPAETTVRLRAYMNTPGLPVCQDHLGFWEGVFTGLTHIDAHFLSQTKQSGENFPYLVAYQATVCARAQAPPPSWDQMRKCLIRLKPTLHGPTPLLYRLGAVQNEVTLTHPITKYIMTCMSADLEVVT
Chain of NS3/NS4 complexes (P27958 1658-1711): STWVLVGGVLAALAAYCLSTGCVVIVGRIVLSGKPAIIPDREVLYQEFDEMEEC

SMILES | IC50 (NS3/NS4 complexes; Table 3, read-out: IC50) | EC50 (hepatitis C replicon; [1]) | IC50 (NS3/NS4 complexes; IC50, Table 3) | EC50 (hepatitis C replicon)
COc1ccc2nc(O[C@@H]3C[C@H]4C(=O)N[C@]5(C(=O)NS(=O)(=O)C6(C)CC6)C[C@H]5/C=C\CCCCC[C@H](NC(=O)OC(C)(C)C)C(=O)N4C3)sc2c1 [Compound 1016] | < 10 nM | 10 to 100 nM | – | –
CC(C)(C)OC(=O)N[C@H]1CCCCC/C=C\[C@@H]2C[C@@]2(C(=O)NS(=O)(=O)C2CC2)NC(=O)[C@@H]2C[C@@H](Oc3nc4ccc(Cl)cc4s3)CN2C1=O [Compound 1018] | < 10 nM | 10 to 100 nM | – | –
CC(C)(C)OC(=O)N[C@H]1CCCCC/C=C\[C@@H]2C[C@@]2(C(=O)NOc2ccccc2)NC(=O)[C@@H]2C[C@@H](Oc3nc4ccccc4o3)CN2C1=O [Compound 1027] | > 100 nM | > 100 nM | – | –
CC(C)(C)OC(=O)N[C@H]1CCCCC/C=C\[C@@H]2C[C@@]2(C(=O)NS(=O)(=O)C2(C)CC2)NC(=O)[C@@H]2C[C@@H](Oc3nc4ccccc4o3)CN2C1=O [Compound 1028] | < 10 nM | 10 to 100 nM | – | –
CC(C)(C)OC(=O)N[C@H]1CCCCC/C=C\[C@@H]2C[C@@]2(C(=O)NS(=O)(=O)C2CC2)NC(=O)[C@@H]2C[C@@H](Oc3nc4ccccc4o3)CN2C1=O [Compound 1029] | < 10 nM | 10 to 100 nM | – | –
Cc1ccc2oc(O[C@@H]3C[C@H]4C(=O)N[C@]5(C(=O)NS(=O)(=O)C6CC6)C[C@H]5/C=C\CCCCC[C@H](NC(=O)OC(C)(C)C)C(=O)N4C3)nc2c1 [Compound 1030] | < 10 nM | 10 to 100 nM | – | –
Cc1cccc2oc(O[C@@H]3C[C@H]4C(=O)N[C@]5(C(=O)NS(=O)(=O)C6CC6)C[C@H]5/C=C\CCCCC[C@H](NC(=O)OC(C)(C)C)C(=O)N4C3)nc12 [Compound 1031] | < 10 nM | 10 to 100 nM | – | –
CC(C)(C)OC(=O)N[C@H]1CCCCC/C=C\[C@@H]2C[C@@]2(C(=O)NS(=O)(=O)C2CC2)NC(=O)[C@@H]2C[C@@H](Oc3nc4cc(Cl)ccc4o3)CN2C1=O [Compound 1032] | < 10 nM | > 100 nM | – | –
Cc1ccc2nc(O[C@@H]3C[C@H]4C(=O)N[C@]5(C(=O)NS(=O)(=O)C6CC6)C[C@H]5/C=C\CCCCC[C@H](NC(=O)OC(C)(C)C)C(=O)N4C3)oc2c1 [Compound 1033] | < 10 nM | 10 to 100 nM | – | –
CC(C)(C)OC(=O)N[C@H]1CCCCC/C=C\[C@@H]2C[C@@]2(C(=O)NS(=O)(=O)C2CC2)NC(=O)[C@@H]2C[C@@H](Oc3nc4cc(F)ccc4o3)CN2C1=O [Compound 1034] | < 10 nM | 10 to 100 nM | – | –
COc1ccc2oc(O[C@@H]3C[C@H]4C(=O)N[C@]5(C(=O)NS(=O)(=O)C6CC6)C[C@H]5/C=C\CCCCC[C@H](NC(=O)OC(C)(C)C)C(=O)N4C3)nc2c1 [Compound 1035] | < 10 nM | > 100 nM | – | –
CC(C)(C)OC(=O)N[C@H]1CCCCC/C=C\[C@@H]2C[C@@]2(C(=O)NS(=O)(=O)C2CC2)NC(=O)[C@@H]2C[C@@H](Oc3nc4ccc(Cl)cc4o3)CN2C1=O [Compound 1036] | < 10 nM | > 100 nM | – | –
CC(C)(C)OC(=O)N[C@H]1CCCCC/C=C\[C@@H]2C[C@@]2(C(=O)NS(=O)(=O)C2CC2)NC(=O)[C@@H]2C[C@@H](Oc3nc4ccc(F)cc4o3)CN2C1=O [Compound 1037] | < 10 nM | > 100 nM | – | –
CC(C)(C)OC(=O)N[C@H]1CCCCC/C=C\[C@@H]2C[C@@]2(C(=O)NS(=O)(=O)C2CC2)NC(=O)[C@@H]2C[C@@H](Oc3nc4cccc(F)c4o3)CN2C1=O [Compound 1038] | < 10 nM | 10 to 100 nM | – | –
Cc1cccc2nc(O[C@@H]3C[C@H]4C(=O)N[C@]5(C(=O)NS(=O)(=O)C6CC6)C[C@H]5/C=C\CCCCC[C@H](NC(=O)OC(C)(C)C)C(=O)N4C3)sc12 [Compound 1040] | < 10 nM | < 10 nM | – | –
CC(C)(C)OC(=O)N[C@H]1CCCCC/C=C\[C@@H]2C[C@@]2(C(=O)NS(=O)(=O)C2(C)CC2)NC(=O)[C@@H]2C[C@@H](Oc3nc4cc(Cl)ccc4o3)CN2C1=O [Compound 1046] | < 10 nM | > 100 nM | – | –
CCn1c(O[C@@H]2C[C@H]3C(=O)N[C@]4(C(=O)NS(=O)(=O)C5(C)CC5)C[C@H]4/C=C\CCCCC[C@H](NC(=O)OC(C)(C)C)C(=O)N3C2)nc2ccccc21 [Compound 1048] | < 10 nM | < 10 nM | – | –
CC(C)(C)OC(=O)N[C@H]1CCCCC/C=C\[C@@H]2C[C@@]2(C(=O)NS(=O)(=O)C2(C)CC2)NC(=O)[C@@H]2C[C@@H](Oc3nc4ccccc4n3Cc3ccccc3)CN2C1=O [Compound 1050] | < 10 nM | 10 to 100 nM | – | –
CC(C)(C)OC(=O)N[C@H]1CCCCC/C=C\[C@@H]2C[C@@]2(C(=O)NS(=O)(=O)C2CC2)NC(=O)[C@@H]2C[C@@H](Oc3nc4ccccc4n3Cc3ccccc3)CN2C1=O [Compound 1051] | < 10 nM | 10 to 100 nM | – | –
CC(C)(C)OC(=O)N[C@H]1CCCCC/C=C\[C@@H]2C[C@@]2(C(=O)NCCC(=O)NCc2ccccc2)NC(=O)[C@@H]2C[C@@H](OC(=O)N3Cc4cccc(F)c4C3)CN2C1=O [Compound 1052] | > 100 nM | > 100 nM | – | –
CC(C)(C)OC(=O)N[C@H]1CCCCC/C=C\[C@@H]2C[C@@]2(C(=O)NCC(=O)NCc2ccccc2)NC(=O)[C@@H]2C[C@@H](OC(=O)N3Cc4cccc(F)c4C3)CN2C1=O [Compound 1053] | – | – | 10 to 100 nM | > 100 nM
CC(C)(C)OC(=O)N[C@H]1CCCCC/C=C\[C@@H]2C[C@@]2(C(=O)N2CCC[C@@H]2C(=O)NCc2ccccc2)NC(=O)[C@@H]2C[C@@H](OC(=O)N3Cc4cccc(F)c4C3)CN2C1=O [Compound 1057] | – | – | > 100 nM | > 100 nM
CC(C)(C)OC(=O)N[C@H]1CCCCC/C=C\[C@@H]2C[C@@]2(C(=O)NCCC(=O)NCc2ccccc2)NC(=O)[C@@H]2C[C@@H](O)CN2C1=O [Compound 1058] | > 100 nM | > 100 nM | – | –
CC(=O)O[C@@H]1C[C@H]2C(=O)N[C@]3(C(=O)N4CCC[C@H]4C(=O)NCc4ccccc4)C[C@H]3/C=C\CCCCC[C@H](NC(=O)OC(C)(C)C)C(=O)N2C1 [Compound 1061] | – | > 100 nM | > 100 nM | –
CO[C@@H]1C[C@H]2C(=O)N[C@]3(C(=O)NCCC(=O)NCc4ccccc4)C[C@H]3/C=C\CCCCC[C@H](NC(=O)OC(C)(C)C)C(=O)N2C1 [Compound 1062] | > 100 nM | > 100 nM | – | –
CN(C)C(=O)O[C@@H]1C[C@H]2C(=O)N[C@]3(C(=O)NS(=O)(=O)C4(C)CC4)C[C@H]3/C=C\CCCCC[C@H](NC(=O)OC(C)(C)C)C(=O)N2C1 [Compound 1065] | < 10 nM | – | – | > 100 nM
CC(=O)O[C@@H]1C[C@H]2C(=O)N[C@]3(C(=O)NS(=O)(=O)C4CC4)C[C@H]3/C=C\CCCCC[C@H](NC(=O)OC(C)(C)C)C(=O)N2C1 [Compound 1071] | < 10 nM | > 100 nM | – | –
CC(C)(C)OC(=O)N[C@H]1CCCCC/C=C\[C@@H]2C[C@@]2(C(=O)NS(=O)(=O)C2(C)CC2)NC(=O)[C@@H]2C[C@@H](OC(=O)N3CCCC3)CN2C1=O [Compound 1072] | < 10 nM | > 100 nM | – | –
COc1ccc2c(O[C@@H]3C[C@H]4C(=O)N[C@]5(C(=O)NS(=O)(=O)C6CC6)C[C@H]5/C=C\CCCCC[C@H](NC(=O)OC(C)(C)C)C(=O)N4C3)cc(-c3ccccc3)nc2c1 [Compound 1075] | < 10 nM | < 10 nM | – | –
CC(C)n1c(O[C@@H]2C[C@H]3C(=O)N[C@]4(C(=O)NS(=O)(=O)C5(C)CC5)C[C@H]4/C=C\CCCCC[C@H](NC(=O)OC(C)(C)C)C(=O)N3C2)nc2ccccc21 [Compound 1077] | < 10 nM | < 10 nM | – | –
